# Laboratory results: publication PMC12040169 (PLOS Biology, 2025)
# Assay: in vitro
# Conditions: human, hela cells, % viability
row,Compound,"viability at 28.5 h, 10 µM"
1,Cc1nc(C)c(C(=O)NC2CCCNC2=O)s1 (stereo not shown) [CBK281628],86.8%
2,CCc1nccn1CCC(=O)Nc1ccc2c(c1)nc(CC)n2CC [CBK281629],81.2%
3,Cc1ccc2oc(C(=O)N(C)Cc3c(C)nn(C)c3C)c(C)c2c1 [CBK281631],80.9%
4,Cc1cc(C(=O)NC(C)Cn2nc(C)cc2C)c2cccc(C)c2n1 (stereo not shown) [CBK281635],91.4%
5,CC(NC(=O)Cn1c(=O)oc2ccc(Cl)cc21)C1CC2CCC1C2 (stereo not shown) [CBK281636],87.7%
6,Cc1nc(-c2cccnc2)sc1C(=O)NC(C)C1CC2CCC1C2 (stereo not shown) [CBK281637],84.2%
7,CCc1nccn1CC(=O)NCC(C)n1nc(C)cc1C (stereo not shown) [CBK281638],80.4%
8,Cc1cc(C)n(C(C)CNC(=O)C(C)Cn2cccn2)n1 (stereo not shown) [CBK281639],87.6%
9,O=C(C1CC2C=CC1C21CC1)N1CCN(c2nccs2)CC1 (stereo not shown) [CBK281640],90.4%
10,O=C(c1ccncc1)N1CCCCC1c1nc2ccccc2[nH]1 (stereo not shown) [CBK281641],87.2%
11,COc1ccc(CCNC(=O)CCn2nc(C)c(Cl)c2C)cc1C [CBK281643],89.5%
12,CCc1cc(CNC(=O)C(c2ccc(F)cc2)N(C)C)on1 (stereo not shown) [CBK281648],88.4%
13,Cc1nc(C)n(CC(=O)N2CCc3sccc3C2c2ccco2)n1 (stereo not shown) [CBK281649],98.8%
14,CC(Cn1cc(Cl)cn1)C(=O)NC(C)C1CC2CCC1C2 (stereo not shown) [CBK281650],110%
15,Cc1cc(C(=O)NC(C)C2CC3CCC2C3)c2cnn(C(C)C)c2n1 (stereo not shown) [CBK281652],96%
16,CCc1nnsc1C(=O)N1CCc2[nH]c3c(C)cccc3c2C1 [CBK281655],86.2%
17,CC(C)C(=O)N1C[C@H]2NC(=O)c3ccccc3C(=O)[C@@]2(C)C1 [CBK281658],103%
18,CC(C)CC(=O)N1C[C@H]2NC(=O)c3ccccc3C(=O)[C@@]2(C)C1 [CBK281659],96.1%
19,CC(C)C(NC(=O)c1cc2c([nH]c1=O)CCC2)c1ccc(F)cc1 (stereo not shown) [CBK281662],93.4%
20,Cn1nccc1CN1CCCC(COc2ccccc2F)C1 (stereo not shown) [CBK281663],87.2%
21,CC(NC(=O)CCc1ccncc1)c1nc2ccccc2s1 (stereo not shown) [CBK281666],98.9%
22,CCc1cc(CNC(=O)C(c2ccc(Cl)cc2)N(C)C)on1 (stereo not shown) [CBK281670],96.6%
23,C[C@]12CN(C(=O)C3CCCC3)C[C@H]1NC(=O)c1ccccc1C2=O [CBK281672],95.4%
24,CC(C)C(=O)N[C@H]1CC[C@]2(CC1)CNC(=O)c1ccccc1O2 [CBK281675],103%

row,Compound,"viability at 28.5 h, 10 µM"
1,CC1CCCN(CC(C)(C)NC(=O)c2cc(C3CC3)on2)C1 (stereo not shown) [CBK281677],94.6%
2,Cc1nonc1CNC(=O)C1CC2C=CC1C21CC1 (stereo not shown) [CBK281678],91.4%
3,CCN1C(=O)c2ccccc2C(=O)[C@@]2(C)CN(C(=O)C(C)C)C[C@@H]12 [CBK281680],91.8%
4,CCC(=O)N[C@H]1CC[C@]2(CC1)CNC(=O)c1ccccc1O2 [CBK281681],106%
5,CC(=O)N(C)[C@H]1CC[C@]2(CC1)CNC(=O)c1ccccc1O2 [CBK281682],101%
6,CCC(=O)N(C)[C@H]1CC[C@]2(CC1)CNC(=O)c1ccccc1O2 [CBK281683],87.5%
7,CN1C(=O)c2ccccc2C(=O)[C@@]2(C)CN(C(=O)c3ccccc3)C[C@@H]12 [CBK281685],93.2%
8,Cc1cc2c(cc1NC(=O)[C@@H]1C[C@@H]3C=C[C@H]1C3)n(C)c(=O)n2C [CBK281689],106%
9,CCCC(=O)N(C)C1CCC2(CC1)CNC(=O)c1cc(C)ccc1O2 (stereo not shown) [CBK281694],88.3%
10,CC(C)(C)NC(=O)Cn1cncc1-c1cnn(-c2ccccc2)c1 [CBK281697],106%
11,CN1CCCc2cc(-c3cncn3CC(=O)NC(C)(C)C)ccc21 [CBK281700],95%
12,CC(C)(C)NC(=O)Cn1cncc1-c1cnn(C2CCCCC2)c1 [CBK281701],93.5%
13,CC(Oc1ccc(F)cc1)C(=O)N(C)CC1(C)COC1 (stereo not shown) [CBK281702],89.7%
14,Cc1cc(CN(C)Cc2cnn(-c3ccc(F)cc3)c2)n[nH]1 [CBK281706],97.1%
15,CCC1C(=O)NCCN1C(=O)c1ccc2c(c1)ncn2C (stereo not shown) [CBK281709],82.4%
16,Cc1cc(CN(C)Cc2cn(C)c3cc(F)ccc23)n[nH]1 [CBK281710],89.6%
17,Cc1cc(C)c2cc(C(=O)N(C)CC3(C)COC3)[nH]c2c1 [CBK281711],87%
18,CC(NC(=O)c1cc(C(F)(F)F)[nH]n1)c1ccccn1 (stereo not shown) [CBK281712],84.8%
19,Cc1cc(C)n(C(C)C(=O)NCC2(N(C)C)CCCC2)n1 (stereo not shown) [CBK281713],107%
20,Cc1cccn2cc(C(=O)NC(C)CN3CCCC3)nc12 (stereo not shown) [CBK281714],99.6%
21,Cc1ccc(-c2cc(C(=O)N(C)CC3(C)COC3)[nH]n2)cc1 [CBK281717],90.9%
22,CN(CC1(C)COC1)C(=O)c1ccc2c(c1)ncn2C1CC1 [CBK281718],86.8%
23,Cc1ccc(-n2cc(CN(C)CC3(C)COC3)cn2)cc1 [CBK281720],93%
24,CN(CC1(C)COC1)C(=O)C1CC(=O)N(C(C)(C)C)C1 (stereo not shown) [CBK281724],112%

row,Compound,"viability at 28.5 h, 10 µM"
1,O=C(Cn1cccn1)NC(CN1CCCCC1)c1ccccc1 (stereo not shown) [CBK281726],104%
2,Cc1ccc(-c2cnc(NC(=O)Cn3cccn3)n2C)cc1C [CBK281727],102%
3,CCC1C(=O)NCCN1C(=O)Cc1cccc2cccnc12 (stereo not shown) [CBK281728],104%
4,Cc1nc2ccccn2c1CN1CCC(N2CCCC2)CC1 [CBK281730],108%
5,Cc1nn(C)cc1C(C)NC(=O)c1ccc2c(c1)ncn2C (stereo not shown) [CBK281732],103%
6,Cc1cc(C2CCCCCN2C(=O)c2cc(C(C)C)on2)on1 (stereo not shown) [CBK281733],79.7%
7,Cc1cccn2cc(C(=O)N(C)CCn3ccnc3C)nc12 [CBK281735],91.7%
8,CC1CCN(CC(C)(C)n2cncc2-c2cnn(C)c2)CC1 [CBK281738],107%
9,Cc1nn(C)cc1-c1cncn1CC(C)Oc1ccccc1Cl (stereo not shown) [CBK281739],83.8%
10,CCn1cc(-c2cncn2C(CCN(C)C)c2ccccc2)cn1 (stereo not shown) [CBK281741],79.2%
11,CCc1nccn1C(C)C(=O)Nc1ccc2ncn(C)c2c1 (stereo not shown) [CBK281745],107%
12,CN1CCCCC1CC(=O)Nc1ccc2ncn(C)c2c1 (stereo not shown) [CBK281747],87.6%
13,CC1(CNC(=O)c2cc(C3CC3)nc3ccccc23)COC1 [CBK281752],90%
14,CC1(CNC(=O)C2CC(=O)N(C3CCCCC3)C2)COC1 (stereo not shown) [CBK281754],97%
15,CC(CC(=O)NCC1(C)COC1)n1cnc2ccccc21 (stereo not shown) [CBK281755],78.1%
16,CC1(CNC(=O)c2cc(-c3ccc(F)cc3)no2)COC1 [CBK281757],84.2%
17,Cc1cc(C)n(C(C(=O)NCC2(C)COC2)C(C)C)n1 (stereo not shown) [CBK281758],85.9%
18,CCn1cc(-c2cncn2CCCOc2cccc(C)c2)cn1 [CBK281760],90.5%
19,CCn1nc(C)c(-c2cncn2CCCOc2ccccc2C)c1C [CBK281761],99.7%
20,Cc1cccc(OCCCn2cncc2-c2cnn(C)c2)c1 [CBK281763],82%
21,CCn1nc(C)c(-c2cncn2CCn2nc(C)c(Cl)c2C)c1C [CBK281768],90.4%
22,CCn1nc(C)c(-c2cncn2CCCN2CCCCC2)c1C [CBK281769],97.6%
23,Cc1cc(C)n(CCCn2cncc2-c2cnn(C)c2)n1 [CBK281771],84.9%
24,Cc1cc(C)n(CCCn2cncc2-c2ccc3c(c2)CC(C)N3C)n1 (stereo not shown) [CBK281773],62%

row,Compound,"viability at 28.5 h, 10 µM"
1,Cc1nn(C)c(C)c1CCNC(=O)CC1CCCCN1C (stereo not shown) [CBK281774],97.6%
2,CC(C)(CO)CCCn1cncc1-c1cnn(C2CCCCC2)c1 [CBK281779],86.7%
3,Cc1nn(C)cc1-c1cncn1CC(C)N1CCCCC1 (stereo not shown) [CBK281781],92.1%
4,Cc1nn(CCn2cncc2-c2cnn(C)c2)c(C)c1C [CBK281783],83.7%
5,Cn1cc(-c2cncn2CCCOc2ccc(Cl)cc2)cn1 [CBK281784],95.2%
6,Cc1nn(C)cc1-c1cncn1CC(C)N1CCC(C)CC1 (stereo not shown) [CBK281789],91.4%
7,Cc1ccc2[nH]c(-c3cncn3C(C)CN3CCOCC3)c(C)c2c1 (stereo not shown) [CBK281794],103%
8,Cc1c(-c2cncn2C(C)CN2CCOCC2)[nH]c2ccccc12 (stereo not shown) [CBK281795],99.9%
9,CCCn1nc(C)c(-c2cncn2CC(C)N2CCCCC2)c1C (stereo not shown) [CBK281802],95.7%
10,CC(=O)NC1(c2ccccc2)CCN(Cc2ccnn2C)CC1 [CBK281805],87.8%
11,Cc1cc(C)n(C2CCN(Cc3cn(C)c4cc(F)ccc34)CC2)n1 [CBK281806],112%
12,CCn1nc(C)c(-c2cncn2CCCC(C)(C)CO)c1C [CBK281807],84.4%
13,Cc1nccn1CCCn1cncc1-c1ccc2c(c1)CC(C)(C)O2 [CBK281809],106%
14,Cc1nccn1CCCn1cncc1-c1ccc2c(c1)CCC(C)N2C (stereo not shown) [CBK281811],91%
15,CC(C)c1nccn1CCCn1cncc1-c1cnn(C)c1 [CBK281812],104%
16,COc1ccc(CCn2cncc2-c2cn(C)nc2C)cc1C [CBK281814],102%
17,CCN1c2ccc(-c3cncn3CC(=O)NC(C)(C)C)cc2CC1C (stereo not shown) [CBK281815],95.7%
18,Cc1nccn1CCCn1cncc1-c1cnn(C2CCCCC2)c1 [CBK281816],105%
19,COc1cccc2cc(-c3cncn3CCCC(C)(C)CO)oc12 [CBK281817],112%
20,Cc1nccn1CCCn1cncc1-c1ccc2c(c1)CC(C)N2C (stereo not shown) [CBK281818],87.8%
21,CC(NC(=O)c1cc2ccc(N(C)C)cc2[nH]1)c1ccccn1 (stereo not shown) [CBK281821],80.6%
22,CC(NC(=O)CCc1nc2ccccc2n1C)c1ccccn1 (stereo not shown) [CBK281823],89%
